Reference: patent US20060135798A1, “2-Methylene-19-nor-(20S)-1alpha-hydroxy-trishomopregnacalciferol” (Wisconsin Alumni Research Foundation, priority 2004, published 2006)

How the values were obtained:
[1] = test system: parathyroid hormone (PTH); experiment: PTH suppression in adult rats; type: in vivo, rat; conditions: ip, 7 consecutive days
Method: (§1) Adult, female Sprague-Dawley rats were obtained from Harlan (Madison, Wis.).
(§2) Upon receipt, the animals were identified by individual tail marks. Animals were housed in suspended, stainless steel, wire-bottom cages. Each cage contained one animal. The animal rooms were maintained at a temperature of 68 to 72° F. and a relative humidity of 25 to 75%. The holding rooms were set to provide 12 hours of light per day. Water and a purified rodent diet (Suda et al., Purified Rodent Diet-Diet 11) containing […] 0.3% phosphorus and fat soluble vitamins A, D, E and K were provided ad libitum.
(§3) Animals were randomly assigned to treatment groups (5 animals/group). All doses were administered intraperitoneally in 100 microliters of propylene glycol. Four to seven consecutive doses were given approximately 24 hours apart. Dosing was initiated after the animals had been allowed to acclimate for at least one week.
Both control and test articles were administered by intraperitoneal injection in 100 microliters for 4-7 consecutive days spaced approximately 24 hours apart. 1,25(OH)2D3 was given for 4 consecutive days, whereas, the test drugs were given for 7 consecutive days.
Twenty-four hours after the final dose, blood was collected from the tail artery and the concentration of bioactive serum PTH was measured using the rat BioActive Intact PTH ELISA Kit from Immutopics, Inc. (San Clemente, Calif.).

[2] = test system: 24-hydroxylase (24Ohase) gene promoter; experiment: In vitro transcription assay (24-hydroxylase promoter luciferase reporter in ROS 17/2.8 cells); type: cell-based; conditions: compared with 1,25-(OH)2D3; FIG. 3
Method: Transcription activity was measured in ROS 17/2.8 (bone) cells that were stably transfected with a 24-hydroxylase (24Ohase) gene promoter upstream of a luciferase reporter gene (Arbour et al., 1998). Cells were given a range of doses. Sixteen hours after dosing the cells were harvested and luciferase activities were measured using a luminometer. RLU=relative luciferase units.

[3] = Bone calcium mobilization (serum calcium on low calcium diet); type: in vivo, rat; conditions: rats, ip, even at 2340 pmol/day; FIG. 4
Method: (§4) Male, weanling Sprague-Dawley rats were placed on Diet 11 (0.47% Ca) diet +AEK for one week followed by Diet 11 (0.02% Ca) +AEK for 3 weeks. The rats were then switched to a diet containing 0.47% Ca for one week followed by two weeks on a diet containing 0.02% Ca. Dose administration began during the last week on 0.02% calcium diet. Four consecutive ip doses were given approximately 24 hours apart. Twenty-four hours after the last dose, blood was collected from the severed neck and the concentration of serum calcium determined as a measure of bone calcium mobilization. The first 10 cm of the intestine was also collected for intestinal calcium transport analysis using the everted gut sac method.

[4] = Hypercalcemia: serum calcium in adult rats; type: in vivo, rat; conditions: ip, 7 consecutive days
Method: as §1, §2, §3
Both control and test articles were administered by intraperitoneal injection in 100 microliters for 4-7 consecutive days spaced approximately 24 hours apart. […]
Twenty-four hours after the final dose, approximately 1 ml of blood was collected from the tail artery of each experimental animal. […] The level of calcium was determined by diluting the serum into 0.1% lanthum chloride and measuring the absorbance on an atomic absorption spectrophotometer (Perkin Elmer Model 3110, Shelton, Conn.).

[5] = target: T1, full-length recombinant rat vitamin D receptor (Rattus norvegicus, UniProt P13053); experiment: Vitamin D receptor binding, competition with [3H]-1,25-(OH)2-D3; conditions: compared with 1,25(OH)2D3; FIG. 1
T1 construct: Full-length recombinant rat receptor was expressed in E. coli BL21(DE3) Codon Plus RIL cells; histidine tag (C); made in house; host or cells: E. coli BL21(DE3) Codon Plus RIL
T1 sequence (P13053 1-423): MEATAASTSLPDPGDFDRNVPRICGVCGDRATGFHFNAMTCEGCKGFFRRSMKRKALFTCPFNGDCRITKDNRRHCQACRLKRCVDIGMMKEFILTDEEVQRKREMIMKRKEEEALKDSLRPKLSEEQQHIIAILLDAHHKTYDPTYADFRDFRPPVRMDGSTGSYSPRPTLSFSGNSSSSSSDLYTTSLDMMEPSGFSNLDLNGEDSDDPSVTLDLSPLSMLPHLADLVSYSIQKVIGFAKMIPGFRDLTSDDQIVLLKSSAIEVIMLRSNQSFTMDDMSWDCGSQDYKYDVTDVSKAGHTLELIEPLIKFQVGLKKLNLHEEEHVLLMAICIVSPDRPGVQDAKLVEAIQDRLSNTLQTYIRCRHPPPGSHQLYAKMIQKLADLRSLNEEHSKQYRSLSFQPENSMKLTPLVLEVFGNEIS
Method: Full-length recombinant rat receptor was expressed in E. coli BL21(DE3) Codon Plus RIL cells and purified to homogeneity using two different column chromatography systems. The first system was a nickel affinity resin that utilizes the C-terminal histidine tag on this protein. The protein that was eluted from this resin was further purified using ion exchange chromatography (S-Sepharose Fast Flow). Aliquots of the purified protein were quick frozen in liquid nitrogen and stored at −80° C. until use. For use in binding assays, the protein was diluted in TEDK50 (50 mM Tris, 1.5 mM EDTA, pH 7.4, 5 mM DTT, 150 mM KCl) with 0.1% Chaps detergent. The receptor protein and ligand concentration was optimized such that no more than 20% of the added radiolabeled ligand was bound to the receptor.
Unlabeled ligands were dissolved in ethanol and the concentrations determined using UV spectrophotometry (1,25(OH)2D3: molar extinction coefficient=18,200 and λmax=265 nm; Analogs: molar extinction coefficient=42,000 and λmax=252 nm). Radiolabeled ligand (^3H-1,25(OH)2D3, ˜159 Ci/mmole) was added in ethanol at a final concentration of 1 nM.
Radiolabeled and unlabeled ligands were added to 100 mcl of the diluted protein at a final ethanol concentration of ≦10%, mixed and incubated overnight on ice to reach binding equilibrium. […] Total binding was determined from the tubes containing only radiolabeled ligand.

HL-60 cells = experiment: HL-60 differentiation (nitro blue tetrazolium reduction); type: cell-based, human; conditions: compared with 1,25-(OH)2D3; FIG. 2
Method: The study drugs were dissolved in ethanol and the concentrations determined using UV spectrophotometry. Serial dilutions were prepared so that a range of drug concentrations could be tested without changing the final concentration of ethanol (≦0.2%) present in the cell cultures.
Human promyelocytic leukemia (HL60) cells were grown in RPMI-1640 medium containing 10% fetal bovine serum. The cells were incubated at 37° C. in the presence of 5% CO2.
HL60 cells were plated at 1.2×10^5 cells/ml. Eighteen hours after plating, cells in duplicate were treated with drug. Four days later, the cells were harvested and a nitro blue tetrazolium reduction assay was performed (Collins et al., 1979; J. Exp. Med. 149:969-974). The percentage of differentiated cells was determined by counting a total of 200 cells and recording the number that contained intracellular black-blue formazan deposits. Verification of differentiation to monocytic cells was determined by measuring phagocytic activity (data not shown).

[6] = Intestinal calcium transport (everted gut sac method); type: in vivo, rat; conditions: rats, ip; FIG. 5
Method: as §4

- serum calcium concentrations [4]: not raising serum calcium concentrations
- binding to the vitamin D receptor relative to the native hormone [5]: almost equal to the native hormone
SMILES: C=C1[C@H](O)CC(=C/C=C2\CCC[C@]3(C)C([C@@H](C)CCC)CC[C@@H]23)C[C@H]1O (stereo in doubt) [2-Methylene-19-nor-(20S)-1α-hydroxy-trishomopregnacalciferol]
- suppression of parathyroid hormone [1]: remarkably effective in suppressing parathyroid hormone
- transcription activity [2]: within one order of magnitude of the activity of 1,25-(OH)2D3
- bone calcium mobilizing activity [3]: little bone calcium mobilizing activity
- activity in inducing differentiation of HL-60 cells (HL-60 cells): equal in activity to 1,25-(OH)2D3
- intestinal calcium transport [6]: retain some ability to elevate intestinal calcium transport
